{
  "source": "patent US9945862B2",
  "about": "“Biomarkers for predicting and assessing responsiveness of thyroid and kidney cancer subjects to lenvatinib compounds” (Eisai R&D Management Co., Ltd., priority 2011, dated 2018)",
  "test_system": "differentiated thyroid cancer patients",
  "assay": "Best overall response / tumor response in differentiated thyroid cancer patients treated in phase II with E7080, by tumor mutation status",
  "type": "in vivo, human",
  "text": "This experiment was directed at identifying amino acid mutations that are useful in predicting whether subjects respond to treatment with E7080 using three criteria of response: best overall response, tumor shrinkage, and progression free survival.\nTissue samples were obtained at surgery before the patients had received any therapy comprising E7080 and were routinely processed with formalin fixed, paraffin embedded tissues (FFPE). The protocol that was used was approved by the institutional review board, and informed consent was obtained from each subject. Tumor tissue samples from 27 patients, for which tissues were available, were used for mutation analysis. DNA was isolated from FFPE tumor blocks collected from patients participating in the trial. Genomic DNA was extracted from two to five 10 micron unstained sections by deparaffinization and Qiagen DNA Mini Kit Tissue Protocol with minor modification. For mutation detection, the SEQUENOM® (San Diego, Calif.) platform and the OncoCarta™ Panel v1.0 and OncoCarta™ Panel v3.0 were used (see, www.sequenom.com/Files/Genetic-Analysis—Graphics/All-Application—PDFs/AssayExplorer2010_1110-Web/). Sequenom's OncoCarta™ Panels are a set of pre-designed and pre-validated assays for efficient mutation screening. The OncoCarta™ Panel v1.0 genes and the number of mutations (in parentheses) are: ABL1 (14); AKT1 (7); AKT2 (2); BRAF (25); CDK4 (2); EGFR (40); ERBB2 (9); FGFR1 (2); FGRF3 (7); FLT3 (3); HRAS (10); JAK2 (1); KIT (32); KRAS (16); MET (5); NRAS (19); PDGFRA (11); PIK3CA (14); and RET (6). The OncoCarta™ Panel v3.0 genes and the number of mutations (in parentheses) are: ABL1 (2) AKT1 (1); APC (12); BRAF (19); CDKN2A (7); CSF1R (6); CTTNB1 (28); EGFR (32); ERBB2 (2); FLT3 (3); HRAS (2); JAK3 (3); KIT (3); KRAS (5); MET (6); MLH1 (1); MYC (6); PDGFRA (11); PIK3CA (4); PTEN (14); RB1 (11); RET (13); SRC (1); STK11 (12); P53 (7); and VH1 (7). […]\nDNA was amplified using the OncoCarta™ PCR primer pools, unincorporated nucleotides were inactivated by shrimp alkaline phosphatase (SAP), and a single base extension reaction was performed using extension primers that hybridize immediately adjacent to the mutations and a custom mixture of nucleotides. Salts were removed by the addition of a cation exchange resin. Multiplexed reactions were spotted onto the SpectroChipII, and mutations, if present, were resolved by MALDI-TOF on the Compact Mass Spectrometer (Sequenom®, San Diego, Calif.). The OncoCarta™ Panel v1.0 (Sequenom®, San Diego, Calif.) consists of 24 pools of primer pairs and 24 pools of extension primers, and has the capacity to detect 225 mutations in 19 genes. The OncoCarta™ Panel v 3.0 consists of 24 pools of primer pairs and 24 pools of extension primers, and has the capacity to detect 218 mutations in 26 genes. Each pool consists of 5-9 primer pairs in the PCR reaction. Two types of assays have been designed in the OncoCarta panel, referred to as simple and complex. The simple assays are those in which a single assay is able to detect the amino acid changes at that codon. The complex assays are those that require more than one assay to identify codon changes or deletions and insertion, and thus are able to detect multiple different amino acid substitutions or deletions. An example of a complex assay involves the use of the KRAS_1 and KRAS_2 assays, which interrogates 2 different nucleotide positions within codon 12 and together identify all codon 12 amino acid changes. In the KRAS G12R mutation, the mutant allele has the codon CGT (Arginine) in contrast to the wild type allele which has the GGT (Glycine) codon. […]",
  "key": {"[1]": {"details": "BRAF.KRAS.NRAS (any of gene) MU"}, "[2]": {"details": "BRAF.KRAS.NRAS (any of gene) WT"}, "[3]": {"details": "BRAF.KRAS.NRAS.VHL (any of gene) MU"}, "[4]": {"details": "BRAF.KRAS.NRAS.VHL (any of gene) WT"}},
  "data": [
    {"smiles": "COc1cc2nccc(Oc3ccc(NC(=O)NC4CC4)c(Cl)c3)c2cc1C(N)=O", "note": "[E7080, 4-(3-chloro-4-(cyclopropylaminocarbonyl)aminophenoxy)-7-methoxy-6-quinolinecarboxamide]", "values": [
      {"measurement": "Number of patients with BOR PD", "setting": "[1]", "result": 0},
      {"measurement": "Number of patients with BOR PR", "setting": "[1]", "result": 10},
      {"measurement": "Number of patients with BOR SD", "setting": "[1]", "result": 1},
      {"measurement": "Number of patients with BOR PD", "setting": "[2]", "result": 2},
      {"measurement": "Number of patients with BOR PR", "setting": "[2]", "result": 3},
      {"measurement": "Number of patients with BOR SD", "setting": "[2]", "result": 6},
      {"measurement": "Number of patients with BOR PD", "setting": "[3]", "result": 1},
      {"measurement": "Number of patients with BOR PR", "setting": "[3]", "result": 10},
      {"measurement": "Number of patients with BOR SD", "setting": "[3]", "result": 1},
      {"measurement": "Number of patients with BOR PD", "setting": "[4]", "result": 1},
      {"measurement": "Number of patients with BOR PR", "setting": "[4]", "result": 3},
      {"measurement": "Number of patients with BOR SD", "setting": "[4]", "result": 6},
      {"measurement": "Number of patients with BOR PD", "setting": "BRAF.KRAS.VHL (any of gene) MU", "result": 2},
      {"measurement": "Number of patients with BOR PR", "setting": "BRAF.KRAS.VHL (any of gene) MU", "result": 8},
      {"measurement": "Number of patients with BOR SD", "setting": "BRAF.KRAS.VHL (any of gene) MU", "result": 0},
      {"measurement": "Number of patients with BOR PD", "setting": "BRAF.KRAS.VHL (any of gene) WT", "result": 0},
      {"measurement": "Number of patients with BOR PR", "setting": "BRAF.KRAS.VHL (any of gene) WT", "result": 8},
      {"measurement": "Number of patients with BOR SD", "setting": "BRAF.KRAS.VHL (any of gene) WT", "result": 5},
      {"measurement": "Number of patients with BOR PD", "setting": "BRAF.NRAS (any of gene) MU", "result": 0},
      {"measurement": "Number of patients with BOR PR", "setting": "BRAF.NRAS (any of gene) MU", "result": 8},
      {"measurement": "Number of patients with BOR SD", "setting": "BRAF.NRAS (any of gene) MU", "result": 1},
      {"measurement": "Number of patients with BOR PD", "setting": "BRAF.NRAS (any of gene) WT", "result": 2},
      {"measurement": "Number of patients with BOR PR", "setting": "BRAF.NRAS (any of gene) WT", "result": 5},
      {"measurement": "Number of patients with BOR SD", "setting": "BRAF.NRAS (any of gene) WT", "result": 6},
      {"measurement": "Number of patients with BOR PD", "setting": "BRAF.VHL (any of gene) MU", "result": 2},
      {"measurement": "Number of patients with BOR PR", "setting": "BRAF.VHL (any of gene) MU", "result": 6},
      {"measurement": "Number of patients with BOR SD", "setting": "BRAF.VHL (any of gene) MU", "result": 0},
      {"measurement": "Number of patients with BOR PD", "setting": "BRAF.VHL (any of gene) WT", "result": 0},
      {"measurement": "Number of patients with BOR PR", "setting": "BRAF.VHL (any of gene) WT", "result": 10},
      {"measurement": "Number of patients with BOR SD", "setting": "BRAF.VHL (any of gene) WT", "result": 5},
      {"measurement": "Number of patients with BOR PD", "setting": "KRAS.NRAS (any of gene) MU", "result": 0},
      {"measurement": "Number of patients with BOR PR", "setting": "KRAS.NRAS (any of gene) MU", "result": 8},
      {"measurement": "Number of patients with BOR SD", "setting": "KRAS.NRAS (any of gene) MU", "result": 0},
      {"measurement": "Number of patients with BOR PD", "setting": "KRAS.NRAS (any of gene) WT", "result": 2},
      {"measurement": "Number of patients with BOR PR", "setting": "KRAS.NRAS (any of gene) WT", "result": 5},
      {"measurement": "Number of patients with BOR SD", "setting": "KRAS.NRAS (any of gene) WT", "result": 7},
      {"measurement": "Number of patients with BOR PD", "setting": "KRAS.NRAS.VHL (any of gene) MU", "result": 1},
      {"measurement": "Number of patients with BOR PR", "setting": "KRAS.NRAS.VHL (any of gene) MU", "result": 8},
      {"measurement": "Number of patients with BOR SD", "setting": "KRAS.NRAS.VHL (any of gene) MU", "result": 0},
      {"measurement": "Number of patients with BOR PD", "setting": "KRAS.NRAS.VHL (any of gene) WT", "result": 1},
      {"measurement": "Number of patients with BOR PR", "setting": "KRAS.NRAS.VHL (any of gene) WT", "result": 5},
      {"measurement": "Number of patients with BOR SD", "setting": "KRAS.NRAS.VHL (any of gene) WT", "result": 7},
      {"measurement": "Patients with partial response (PR)", "setting": "patients with either an NRAS or KRAS mutation", "result": "8 out of 8"},
      {"measurement": "Patients with partial response (PR)", "setting": "patients without mutations in NRAS and KRAS", "result": "5 out of 14"},
      {"measurement": "Clinical outcome in differentiated thyroid cancer patients", "setting": "phase II", "result": "Tumor response and prolonged disease stabilization were observed"}
    ]}
  ]
}
